Results from patent publication US8470829B2 (priority 2004, dated 2013).
Where two headings read alike, the source gives them in different places.

Columns and labels:
[1] = molecular target: T1, human androgen receptor (Homo sapiens, UniProt P10275); test: Investigation of antagonist effect on androgen receptor (reporter gene assay, 11A11B2 cells, with DHT); assay type: cell-based
T1 construct: expressed in transfected cells
T1 sequence (P10275 1-920): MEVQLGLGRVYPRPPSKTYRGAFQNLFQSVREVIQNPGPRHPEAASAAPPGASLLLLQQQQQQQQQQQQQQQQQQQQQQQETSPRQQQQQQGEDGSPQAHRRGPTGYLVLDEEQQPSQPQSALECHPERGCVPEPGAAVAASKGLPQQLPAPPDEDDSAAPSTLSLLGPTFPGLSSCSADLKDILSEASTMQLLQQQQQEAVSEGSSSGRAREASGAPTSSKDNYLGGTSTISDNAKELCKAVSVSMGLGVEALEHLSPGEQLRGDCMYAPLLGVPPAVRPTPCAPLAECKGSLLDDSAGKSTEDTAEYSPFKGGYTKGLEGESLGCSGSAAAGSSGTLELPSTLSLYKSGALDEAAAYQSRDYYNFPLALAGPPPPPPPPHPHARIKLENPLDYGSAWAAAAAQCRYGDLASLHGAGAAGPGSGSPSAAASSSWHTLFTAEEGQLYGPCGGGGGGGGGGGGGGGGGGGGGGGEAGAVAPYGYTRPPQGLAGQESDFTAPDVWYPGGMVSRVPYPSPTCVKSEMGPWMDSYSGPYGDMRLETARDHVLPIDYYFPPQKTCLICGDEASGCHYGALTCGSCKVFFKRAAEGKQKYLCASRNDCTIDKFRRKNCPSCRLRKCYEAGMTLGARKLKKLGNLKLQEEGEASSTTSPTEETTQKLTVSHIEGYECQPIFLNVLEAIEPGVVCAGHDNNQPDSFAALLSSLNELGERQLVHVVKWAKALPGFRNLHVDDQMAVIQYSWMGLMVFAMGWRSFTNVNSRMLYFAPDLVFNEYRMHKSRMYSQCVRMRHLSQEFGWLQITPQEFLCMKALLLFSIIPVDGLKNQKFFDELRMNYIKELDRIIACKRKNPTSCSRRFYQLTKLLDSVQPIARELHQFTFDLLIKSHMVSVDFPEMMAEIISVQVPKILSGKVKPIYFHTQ
Protocol: (§1) HeLa cells (purchased from Dai-Nippon Seiyaku K. K.) were cultured overnight in Dulbecco's Modified Eagle Medium containing no phenol red, but containing 3% charcoal-treated fetal bovine serum (hereafter referred to as DCC-FBS) (this medium is hereafter referred to as phenol-red-free DMEM). An MMTV-Luc-Hyg vector (reporter plasmid with mouse mammary tumor virus long terminal repeat, containing an androgen response element and a hygromycin resistance gene: a vector obtained by substituting a chloramphenicol acetyl transferease gene of a GM-CAT vector (A.T.C.C No. 67282) purchased from the A.T.C.C. with the firefly luciferase gene, and inserting a hygromycin resistance gene as a drug resistant gene), and pSG5-hAR-neo (human androgen receptor expression vector: a vector having an androgen receptor gene under the control of the SV40 promoter, and having a neomycin resistance gene inserted as a drug resistance gene) were transfected into the HeLa cells using an FuGENE™ 6 Transfection Reagent (obtained from Roche).
(§2) The clone cells thus obtained (11A11B2 cells) were maintained and propagated using DMEM containing 400 μg/mL neomycin, 200 μg/mL hygromycin and 10% FBS, and were propagated using phenol-red-free DMEM containing 10% DCC-FBS three to four days prior to the performance of an androgen receptor reporter gene assay.
The 11A11B2 cells were inoculated in a white clear-bottomed 96-well microplate (COSTAR) so that the cell concentration was 1.0×10^4/well, and were cultured overnight. The assay medium containing DHT was added so that the final concentration of DHT was 0.1 nmol/L, and samples of the assay medium containing the compounds of the Examples or compounds of the Comparative Examples were added so that the final concentrations of the compounds of the Examples or compounds of the Comparative Examples were 1, 10, 100, 1,000 and 10,000 nmol/L, respectively. After culturing for 48, hours, the transcription activity values were measured. The transcription activity was measured using a Bright-Glo™ Luciferase Assay System (Promega).
(§3) The transcription activity rates of the compounds of the Examples were calculated from the transcription activity measured by the abovementioned method, with the transcription activity value obtained at 0.1 nmol/L DHT taken as 100%, and the transcription activity value in the case of the assay, medium alone taken as 0%.

[2] = molecular target: T1, human androgen receptor; test: Measurement of agonist effect on androgen receptor (reporter gene assay, 11A11B2 cells); assay type: cell-based; conditions: compound concentration showing a transcription activity of 5% (0.1 nmol/L DHT = 100%, assay medium alone = 0%), 48 hours
Protocol: as §1, §2
The 11A11B2 cells were inoculated in a white clear-bottomed 96-well microplate (COSTAR) so that the cell concentration was 1.0×10^4/well, and were cultured overnight using phenol-red-free DMEM containing 3% DCC-FBS (hereafter referred to as the assay medium). Samples of the assay medium containing the compounds of the Examples and compounds of the Comparative Examples were added so that the final concentrations of the compounds of the Examples and compounds of the Comparative Examples were 1, 10, 100, 1,000 and 10,000 nmol/L), and the cells were cultured for 48 hours, after which the transcription activity value was measured. The transcription activity was measured using a Bright-Glo™ Luciferase Assay System (Promega).
as §3, with “assay” for “assay,”, “0%. The compound concentration showing a transcription activity of 5% (EC5 value) was calculated from a linear equation for two points on either side of 5%.” for “0%.”

[3] = with 0.1 nmol/L DHT, transcription activity rate of Test Example 1 subtracted, 11A11B2 cells, 48 hours, read-out: IC50

Compound | IC50 [1, 3] [nM] | EC5 [2] [µM] | IC50 [1] [nM]
CC1(C)C(=O)N(c2ccc(C#N)c(C(F)(F)F)c2)C(=O)N1c1ccc(Cl)c(NC(=O)OCCN)c1 [Example 37, {2-chloro-5-[3-(4-cyano-3-trifluoromethylphenyl)-5,5-dimethyl-2,4-dioxoimidazolidin-1-yl]phenyl}-carbamic acid 2-aminoethyl ester] | 700 | >10 | 
CCCNC(=O)N1CCC(N2C(=S)N(c3ccc(C#N)c(C(F)(F)F)c3)C(=O)C2(C)C)CC1 [Example 39, 4-[3-(1-n-propylaminocarbonylpiperidin-4-yl)-4,4-dimethyl-5-oxo-2-thioxoimidazolidin-1-yl]-2-trifluoromethylbenzonitrile] | 900 | >10 | 
CCCNC(=O)N1CCC(N2C(=S)N(c3ccc(C#N)c(Cl)c3)C(=O)C2(C)C)CC1 [Example 41, 4-[3-(1-n-propylaminocarbonylpiperidin-4-yl)-4,4-dimethyl-5-oxo-2-thioxoimidazolidin-1-yl]-2-chlorobenzonitrile] |  | >10 | 500
CC1(C)C(=O)N(c2ccc(C#N)c(C(F)(F)F)c2)C(=S)N1c1ccc(Cl)c(NC(=O)OCCO)c1 [Example 46, {2-chloro-5-[3-(4-cyano-3-trifluoromethylphenyl)-5,5-dimethyl-4-oxo-2-thioxoimidazolidin-1-yl]phenyl}-carbamic acid 2-hydroxyethyl ester] |  | >10 | 300
CC1(C)C(=O)N(c2ccc(C#N)c(Cl)c2)C(=S)N1c1ccc(Cl)c(NC(=O)OCCO)c1 [Example 47, {2-chloro-5-[3-(4-cyano-3-chlorophenyl)-5,5-dimethyl-4-oxo-2-thioxoimidazolidin-1-yl]phenyl}carbamic acid 2-hydroxyethyl ester] |  | >10 | 300
COc1cc(N2C(=O)C(C)(C)N(c3ccc(Cl)c(NC(=O)OCCO)c3)C2=S)ccc1C#N [Example 48, {2-chloro-5-[3-(4-cyano-3-methoxyphenyl)-5,5-dimethyl-4-oxo-2-thioxoimidazolidin-1-yl]phenyl}-carbamic acid 2-hydroxyethyl ester] | 500 | >10 | 
CC1(C)C(=O)N(c2ccc(C#N)c(C(F)(F)F)c2)C(=S)N1c1ccc(Cl)c(NC(=O)OCC(O)CO)c1 (stereo not shown) [Example 49, {2-chloro-5-[3-(4-cyano-3-trifluoromethylphenyl)-5,5-dimethyl-4-oxo-2-thioxoimidazolidin-1-yl]phenyl}-carbamic acid 2,3-dihydroxypropyl ester] |  | >10 | 300
CC1(C)C(=O)N(c2ccc(C#N)c(Cl)c2)C(=S)N1c1ccc(Cl)c(NC(=O)OCC(O)CO)c1 (stereo not shown) [Example 50, {2-chloro-5-[3-(4-cyano-3-chlorophenyl)-5,5-dimethyl-4-oxo-2-thioxoimidazolidin-1-yl]phenyl}-carbamic acid 2,3-dihydroxypropyl ester] |  | >10 | 300
CN(C)CCOC(=O)Nc1cc(N2C(=S)N(c3ccc(C#N)c(C(F)(F)F)c3)C(=O)C2(C)C)ccc1Cl [Example 52, {2-chloro-5-[3-(4-cyano-3-trifluoromethylphenyl)-5,5-dimethyl-4-oxo-2-thioxoimidazolidin-1-yl]phenyl}-carbamic acid 2-dimethylaminoethyl ester] |  | >10 | 300
COc1cc(N2C(=O)C(C)(C)N(c3ccc(Cl)c(NC(=O)OCCN(C)C)c3)C2=S)ccc1C#N [Example 54, {2-chloro-5-[3-(4-cyano-3-methoxyphenyl)-5,5-dimethyl-4-oxo-2-thioxoimidazolidin-1-yl]phenyl}-carbamic acid 2-dimethylaminoethyl ester] | 500 | >10 | 
CC1(C)C(=O)N(c2ccc(C#N)c(C(F)(F)F)c2)C(=S)N1c1ccc(Cl)c(NC(=N)N)c1 [Example 55, N-{2-chloro-5-[3-(4-cyano-3-trifluoromethylphenyl)-5,5-dimethyl-4-oxo-2-thioxoimidazolidin-1-yl]phenyl}guanidine] |  | >10 | 700
CC1(C)C(=O)N(c2ccc(C#N)c(C(F)(F)F)c2)C(=S)N1c1ccc(S(N)(=O)=O)cc1 [Example 56, 4-[3-(4-cyano-3-trifluoromethylphenyl)-5,5-dimethyl-4-oxo-2-thioxoimidazolidin-1-yl]benzenesulfonamide] | 400 | >10 | 
CN(C)CCOC(=O)Nc1ccc(N2C(=S)N(c3ccc(C#N)c(C(F)(F)F)c3)C(=O)C2(C)C)cn1 [Example 58, {5-[3-(4-cyano-3-trifluoromethylphenyl)-5,5-dimethyl-4-oxo-2-thioxoimidazolidin-1-yl]pyridin-2-yl}carbamic acid 2-dimethylaminoethyl ester] |  | >10 | 500
CC1(C)C(=O)N(c2ccc(C#N)c(C(F)(F)F)c2)C(=S)N1c1ccc(NC(=O)OCCO)nc1 [Example 60, {5-[3-(4-cyano-3-trifluoromethylphenyl)-5,5-dimethyl-4-oxo-2-thioxoimidazolidin-1-yl]pyridin-2-yl}carbamic acid 2-hydroxyethyl ester] | 300 | >10 | 
CN(C)CCNC(=O)Nc1nc2cc(N3C(=S)N(c4ccc(C#N)c(Cl)c4)C(=O)C3(C)C)ccc2s1 [Example 61, 1-{5-[3-(3-chloro-4-cyanophenyl)-5,5-dimethyl-4-oxo-2-thioxoimidazolidin-1-yl]benzothiazol-2-yl}-3-(2-dimethylaminoethyl)urea] |  | >10 | 300
CC1(C)C(=O)N(c2ccc(C#N)c(Cl)c2)C(=S)N1c1ccc2sc(NC(=O)NCCO)nc2c1 [Example 63, 1-{5-[3-(3-chloro-4-cyanophenyl)-5,5-dimethyl-4-oxo-2-thioxoimidazolidin-1-yl]benzothiazol-2-yl}-3-(2-hydroxyethyl)urea] |  | >10 | 300
CN(C)CCOC(=O)Nc1nc2cc(N3C(=S)N(c4ccc(C#N)c(Cl)c4)C(=O)C3(C)C)ccc2s1 [Example 64, {5-[3-(3-chloro-4-cyanophenyl)-5,5-dimethyl-4-oxo-2-thioxoimidazolidin-1-yl]benzothiazol-2-yl}carbamic acid 2-dimethylaminoethyl ester] | 200 | >10 | 
